Where a name gives a salt, the structure may show the parent alone.
What was measured:
[1] = Thermal stability of polymorph form on heating at 60-70° C., examined by XRPD; type: physicochemical; conditions: for Polymorph form detected after heating: oil bath 60-70° C., XRPD
[2] = Polymorph stability under accelerated stress conditions (40±2° C., 75±5% RH), by XRD; type: physicochemical; conditions: accelerated high humidity stress conditions

SMILES: Cc1cn(-c2cc(NC(=O)c3ccc(C)c(Nc4nccc(-c5cccnc5)n4)c3)cc(C(F)(F)F)c2)cn1 [Nilotinib hydrochloride]
- Stability to heat ([1]; 70° C./40 hours): stable to heat
- Polymorph form detected after heating ([1]; time of heating 10 hours): XRD pattern unchanged
- Polymorph form detected after heating ([1]; time of heating 20 hours): XRD pattern unchanged
- Polymorph form detected after heating ([1]; time of heating 30 hours): XRD pattern unchanged
- Polymorph form detected after heating ([1]; time of heating 40 hours): XRD pattern unchanged
- Hygroscopicity (40° C./75% RH): non-hygroscopic
- Final moisture content after 60 days 40° C. at humidity of 75% (60 days, 40° C./75% RH, karl-fischer): 5.2%
- Initial moisture Content (%) (before storage, karl-fischer): 5.26%
- XRD spectra after storage [2]: essentially the same and unchanged
